From patent US20170107207A1, “AMINOPYRAZOLONE DERIVATIVE” (DAIICHI SANKYO COMPANY, LIMITED, priority 2014, published 2017) come the findings set out here.

One assay addresses T1, TIP48/TIP49 complex (Homo sapiens, UniProt Q9Y230+Q9Y265).
T1 construct: made in house; host or cells: E. coli
As to the kind of experiment: ATPase assay of TIP48/TIP49 complex (ADP-Glo). In kind it is biochemical. Conditions: concentration at which the ATPase activity was inhibited by 50%. In a few lines:
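Compound was tested over 10 four-fold concentrations, 200 μM down to 0.0007 μM at 2% DMSO, against E. coli-derived human rTIP48/rTIP49 for 1.5 h at room temperature, pH 7.5 with ATP. ATP hydrolysis was read as ADP-Glo luminescence, normalised to complex-only and no-complex wells, then fitted to dose-response curves.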
(In general: ADP-Glo turns the ADP formed in a reaction into a luminescent signal.)

The subject of the next assay is SK-MEL-28. The experiment in a line: Cell growth inhibition test, SK-MEL-28. Conditions: Homo sapiens, 72 h; SK-MEL-28, Skin cancer, 3 days, CellTiter-Glo. It counts as cell-based. Here is the method:
(§1) A cell growth inhibition test was carried out by treating a cultured cancer cell line with a test compound for a given period and then counting the number of viable cells by CellTiter-Glo Luminescent Cell Viability Assay (manufactured by Promega Corp.).
(§2) The following cells were inoculated to a 384-well plate containing the compound prepared in advance at predetermined concentrations. […]
(§3) The cells thus inoculated were cultured at 37° C. for 3 days under 5% CO2. […] Then, luminescence intensity was measured using a plate reader.
(§4) The number of viable cells and luminescence intensity have been confirmed to correlate with each other. Therefore, the rate of cell growth was calculated according to the following expression: Rate of cell growth (T/C %) of a test compound-supplemented well=100×[(B−C)/(A−C)] wherein A represents the luminescence intensity (final culture date) of a test compound-free well; B represents the luminescence intensity (final culture date) of a test compound-containing well; and C represents the luminescence intensity (day of cell inoculation) of a well at the start of contact of the cells with the test compound.
(§5) T/C % at the concentration of each of the serially diluted test compounds was determined. […]
For orientation: ATP-based viability assays read luminescence as a measure of living cells.

The subject of another assay is MV-4-11. The experiment in a line: Cell growth inhibition test, MV-4-11. It counts as cell-based. Conditions: Homo sapiens, MV4-11, 72 h; MV-4-11, Leukemia, 3 days, CellTiter-Glo. How it is done: as §1, §2, §3, §4, §5
For the next assay, the system named is AN3CA. The experiment in a line: Cell growth inhibition test, AN3CA. In kind it is cell-based. Conditions: Homo sapiens, AN3-CA, 72 h, Endometrial cancer, 3 days, CellTiter-Glo. How it is done: as §1, §2, §3, §4, §5

T1 sequence (Q9Y230 whole entry): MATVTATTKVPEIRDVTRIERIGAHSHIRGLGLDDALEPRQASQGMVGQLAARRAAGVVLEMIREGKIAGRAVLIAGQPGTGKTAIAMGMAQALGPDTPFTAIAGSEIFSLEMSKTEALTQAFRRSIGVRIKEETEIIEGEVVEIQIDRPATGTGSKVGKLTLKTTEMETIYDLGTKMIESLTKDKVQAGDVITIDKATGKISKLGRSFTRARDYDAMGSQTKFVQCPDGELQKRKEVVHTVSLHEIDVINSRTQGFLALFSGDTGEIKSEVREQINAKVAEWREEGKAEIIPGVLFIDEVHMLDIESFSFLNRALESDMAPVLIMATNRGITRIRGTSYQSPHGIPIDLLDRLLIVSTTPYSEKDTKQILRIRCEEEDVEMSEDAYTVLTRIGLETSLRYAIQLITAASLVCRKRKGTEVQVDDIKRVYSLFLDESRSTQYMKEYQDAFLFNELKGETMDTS
T1 sequence (Q9Y265 whole entry): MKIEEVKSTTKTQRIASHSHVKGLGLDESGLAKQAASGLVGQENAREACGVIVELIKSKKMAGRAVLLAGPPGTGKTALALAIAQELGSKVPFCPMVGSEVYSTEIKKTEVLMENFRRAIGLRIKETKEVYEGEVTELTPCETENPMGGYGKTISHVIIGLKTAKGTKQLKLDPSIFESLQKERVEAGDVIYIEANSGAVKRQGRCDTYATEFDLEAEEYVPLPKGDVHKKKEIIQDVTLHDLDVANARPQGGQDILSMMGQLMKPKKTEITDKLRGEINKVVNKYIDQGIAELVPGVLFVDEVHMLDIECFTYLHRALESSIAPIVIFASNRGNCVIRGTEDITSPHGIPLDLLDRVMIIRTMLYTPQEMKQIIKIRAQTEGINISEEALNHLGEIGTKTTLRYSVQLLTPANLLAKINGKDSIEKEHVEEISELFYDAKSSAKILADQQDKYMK

In the case of `CCOc1cc(F)c(Cl)cc1C(=O)NCC(C)(C)CC(=O)Nc1c(COC)n(C)n(-c2ccccc2)c1=O` [Example 113, 5-Chloro-2-ethoxy-4-fluoro-N-(4-{[5-(methoxymethyl)-1-methyl-3-oxo-2-phenyl-2,3-dihydro-1H-pyrazol-4-yl]amino}-2,2-dimethyl-4-oxobutyl)benzamide], the midpoint of inhibition at TIP48/TIP49 complex, the IC50, lay at 39 nM. Also, the GI50 (commonly the concentration that inhibits growth by half) in the assay with SK-MEL-28 is 800 nM; in the assay on MV-4-11, 400 nM; with AN3CA, 1400 nM.

For `CCOc1ncc(Cl)cc1C(=O)NCC(C)(C)CC(=O)Nc1c([C@H](C)CN(C)C)n(C)n(-c2ccccc2)c1=O` [Example 73, 5-Chloro-N-[4-({5-[(1R)-2-(dimethylamino)-1-methylethyl]-1-methyl-3-oxo-2-phenyl-2,3-dihydro-1H-pyrazol-4-yl}amino)-2,2-dimethyl-4-oxobutyl]-2-ethoxypyridine-3-carboxamide], it took 48 nM to reach half-maximal inhibition against TIP48/TIP49 complex (IC50). Besides, the GI50 with SK-MEL-28 was found to be 920 nM; in the assay on MV-4-11, 490 nM; in the assay with AN3CA, 2200 nM.

With `CCOc1ccc(Cl)cc1C(=O)NCC(C)(C)CC(=O)Nc1c([C@H](C)CN(C)C)n(C)n(-c2ccccc2)c1=O` [Example 68, 5-Chloro-N-[4-({5-[(1R)-2-(dimethylamino)-1-methylethyl]-1-methyl-3-oxo-2-phenyl-2,3-dihydro-1H-pyrazol-4-yl}amino)-2,2-dimethyl-4-oxobutyl]-2-ethoxybenzamide], on TIP48/TIP49 complex, inhibition was half-maximal at 70 nM (IC50). Also, the GI50 was 590 nM in the assay on SK-MEL-28, 210 nM with MV-4-11 and 740 nM with AN3CA.
